Measured values from the NIST ThermoML archive (doi:10.1007/s10765-007-0223-x).

Assay: xn = mol fraction of the nth substance listed
Conditions: 101 kPa, Liquid; for speed of sound: Single path-length method

CCc1ccccc1 [ethylbenzene] + COC(C)(C)C
Conditions | mass density [kg/m3] | speed of sound [m/s]
305.65 K, x2 = 0 | 855.837 | –
305.65 K, x2 = 0.046 | 850.573 | –
305.65 K, x2 = 0.106 | 843.52 | –
305.65 K, x2 = 0.212 | 831.061 | –
305.65 K, x2 = 0.299 | 820.447 | –
305.65 K, x2 = 0.402 | 807.578 | –
305.65 K, x2 = 0.503 | 796.166 | –
305.65 K, x2 = 0.6 | 782.111 | –
305.65 K, x2 = 0.701 | 768.689 | –
305.65 K, x2 = 0.822 | 752.062 | –
305.65 K, x2 = 0.899 | 741.065 | –
305.65 K, x2 = 0.948 | 733.91 | –
308.15 K, x2 = 0 | 853.622 | 1276.8
308.15 K, x2 = 0.046 | 848.347 | 1264.9
308.15 K, x2 = 0.106 | 841.274 | 1249.5
308.15 K, x2 = 0.212 | 828.779 | 1221.9
308.15 K, x2 = 0.299 | 818.132 | 1198.5
308.15 K, x2 = 0.402 | 805.218 | 1169.2
308.15 K, x2 = 0.503 | 793.77 | 1144
308.15 K, x2 = 0.6 | 779.66 | 1112.2
308.15 K, x2 = 0.701 | 766.192 | 1082.7
308.15 K, x2 = 0.822 | 749.497 | 1045.6
308.15 K, x2 = 0.899 | 738.451 | 1021
308.15 K, x2 = 0.948 | 731.264 | 1005.2
310.65 K, x2 = 0 | 851.407 | 1266.5
310.65 K, x2 = 0.046 | 846.119 | 1254.8
310.65 K, x2 = 0.106 | 839.024 | 1239.2
310.65 K, x2 = 0.212 | 826.493 | 1211.5
310.65 K, x2 = 0.299 | 815.815 | 1188.1
310.65 K, x2 = 0.402 | 802.853 | 1158.6
310.65 K, x2 = 0.503 | 791.367 | 1133.2
310.65 K, x2 = 0.6 | 777.204 | 1101.4
310.65 K, x2 = 0.701 | 763.689 | 1071.8
310.65 K, x2 = 0.822 | 746.926 | 1034.6
310.65 K, x2 = 0.899 | 735.825 | 1009.8
310.65 K, x2 = 0.948 | 728.607 | 993.9
313.15 K, x2 = 0 | 849.186 | 1256.3
313.15 K, x2 = 0.046 | 843.886 | 1244.6
313.15 K, x2 = 0.106 | 836.773 | 1229
313.15 K, x2 = 0.212 | 824.202 | 1201
313.15 K, x2 = 0.299 | 813.486 | 1177.5
313.15 K, x2 = 0.402 | 800.48 | 1148
313.15 K, x2 = 0.503 | 788.959 | 1122.5
313.15 K, x2 = 0.6 | 774.736 | 1090.5
313.15 K, x2 = 0.701 | 761.174 | 1060.8
313.15 K, x2 = 0.822 | 744.341 | 1023.4
313.15 K, x2 = 0.899 | 733.188 | 998.53
313.15 K, x2 = 0.948 | 725.934 | 982.63
315.65 K, x2 = 0 | 846.964 | 1246.1
315.65 K, x2 = 0.046 | 841.648 | 1234.5
315.65 K, x2 = 0.106 | 834.515 | 1218.7
315.65 K, x2 = 0.212 | 821.909 | 1190.8
315.65 K, x2 = 0.299 | 811.155 | 1166.9
315.65 K, x2 = 0.402 | 798.107 | 1137.5
315.65 K, x2 = 0.503 | 786.547 | 1111.9
315.65 K, x2 = 0.6 | 772.257 | 1079.6
315.65 K, x2 = 0.701 | 758.651 | 1050
315.65 K, x2 = 0.822 | 741.744 | 1012.4
315.65 K, x2 = 0.899 | 730.538 | 987.36
315.65 K, x2 = 0.948 | 723.249 | 971.33
318.15 K, x2 = 0 | 844.741 | 1236.1
318.15 K, x2 = 0.046 | 839.413 | 1224.5
318.15 K, x2 = 0.106 | 832.261 | 1208.7
318.15 K, x2 = 0.212 | 819.612 | 1180.5
318.15 K, x2 = 0.299 | 808.784 | 1155.9
318.15 K, x2 = 0.402 | 795.73 | 1127
318.15 K, x2 = 0.503 | 784.128 | 1101.4
318.15 K, x2 = 0.6 | 769.777 | 1068.9
318.15 K, x2 = 0.701 | 756.122 | 1039.2
318.15 K, x2 = 0.822 | 739.136 | 1001.4
318.15 K, x2 = 0.899 | 727.875 | 976.23
318.15 K, x2 = 0.948 | 720.551 | 960.13
320.65 K, x2 = 0 | 842.518 | 1226.1
320.65 K, x2 = 0.046 | 837.173 | 1214.5
320.65 K, x2 = 0.106 | 830.003 | 1198.6
320.65 K, x2 = 0.212 | 817.315 | 1170.4
320.65 K, x2 = 0.299 | 806.474 | 1146
320.65 K, x2 = 0.402 | 793.356 | 1116.8
320.65 K, x2 = 0.503 | 781.711 | 1091
320.65 K, x2 = 0.6 | 767.333 | 1058.7
320.65 K, x2 = 0.701 | 753.581 | 1028.4
320.65 K, x2 = 0.822 | 736.516 | 990.46
320.65 K, x2 = 0.899 | 725.199 | 965.11
320.65 K, x2 = 0.948 | 717.839 | 948.99
323.15 K, x2 = 0 | 840.306 | 1216.3
323.15 K, x2 = 0.046 | 834.949 | 1204.7
323.15 K, x2 = 0.106 | 827.754 | 1188.8
323.15 K, x2 = 0.212 | 815.028 | 1160.5
323.15 K, x2 = 0.299 | 804.174 | 1136.3
323.15 K, x2 = 0.402 | 791.012 | 1106.9
323.15 K, x2 = 0.503 | 779.302 | 1080.8
323.15 K, x2 = 0.6 | 764.898 | 1048.8
323.15 K, x2 = 0.701 | 751.042 | 1017.8
323.15 K, x2 = 0.822 | 733.902 | 979.73
323.15 K, x2 = 0.899 | 722.521 | 954.17
323.15 K, x2 = 0.948 | 715.125 | 938
